The source of these data is ChEMBL document CHEMBL1135154, “Optimization of the beta-aminoester class of factor Xa inhibitors. Part 1: P(4) and side-chain modifications for improved in vitro potency” (Bioorg Med Chem Lett, 2002).

A short description of test [1]: Activated partial thromboplastin times (APTT) was determined in rat plasma. It is filed as functional.
Test [2] in a line: Activated partial thromboplastin times (APTT) was determined int human plasma. Format: functional.
The target of another test is Serine protease 1 (Homo sapiens, UniProt P07477). The test is described as follows: In vitro inhibitory activity against human trypsin.
Test [3] has as its target T1, Prothrombin (Homo sapiens, UniProt P00734). Kind of test: In vitro inhibitory activity against human Coagulation factor IIa.
The target in a further test is Coagulation factor X (Homo sapiens, UniProt P00742). Kind of test: In vitro inhibitory activity against human Coagulation factor Xa.
For test [4], the target named is T1, Prothrombin. The test is described as follows: Ratio of human Coagulation factor IIa to that of human Coagulation factor Xa was evaluated.
A short description of test [5]: Activated partial thromboplastin times (APTT) was determined in human plasma. Format: functional.

Some results are limits rather than exact numbers.

Chain of Coagulation factor X (P00742 41-179 limits assumed): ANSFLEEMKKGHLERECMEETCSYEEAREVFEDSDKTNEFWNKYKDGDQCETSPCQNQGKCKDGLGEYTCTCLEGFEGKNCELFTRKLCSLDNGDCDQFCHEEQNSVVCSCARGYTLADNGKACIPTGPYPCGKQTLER
Chain of Coagulation factor X (P00742 235-488 limits assumed): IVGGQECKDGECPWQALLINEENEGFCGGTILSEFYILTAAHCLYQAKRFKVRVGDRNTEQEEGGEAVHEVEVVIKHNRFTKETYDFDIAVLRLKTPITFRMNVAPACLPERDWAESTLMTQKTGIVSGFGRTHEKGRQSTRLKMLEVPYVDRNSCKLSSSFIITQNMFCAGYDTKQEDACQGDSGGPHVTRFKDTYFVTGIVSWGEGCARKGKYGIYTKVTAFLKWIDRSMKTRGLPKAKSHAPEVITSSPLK
Chain of Serine protease 1 (P07477 whole entry): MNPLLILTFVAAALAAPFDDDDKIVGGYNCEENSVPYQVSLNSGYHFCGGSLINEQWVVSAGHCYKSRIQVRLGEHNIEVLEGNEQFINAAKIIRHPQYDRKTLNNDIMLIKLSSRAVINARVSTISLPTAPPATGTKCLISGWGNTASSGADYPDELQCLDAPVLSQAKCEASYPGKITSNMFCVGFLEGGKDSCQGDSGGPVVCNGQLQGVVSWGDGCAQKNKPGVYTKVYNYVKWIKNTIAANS

What is called Ki is the dissociation constant of the complex between target and ligand, obtained from inhibition or displacement. Take `COC(=O)[C@H](Cc1cccc(C(=N)N)c1)[C@@H](C)NC(=O)c1ccc(-c2cccc(CN)c2)cc1`: the figures for the APTT in test [1] and in test [2] were 1.7 µM and 0.33 µM, respectively. The same molecule displayed a Ki on Serine protease 1 of 69 nM.
As to `COC(=O)[C@@H](CNC(=O)c1ccc(-c2ccccc2)cc1)Cc1cccc(C(=N)N)c1`, the results for the Ki on Prothrombin [3], on Coagulation factor X and on Serine protease 1 were greater than 3950 nM, 20 nM and 230 nM, respectively.
`COC(=O)[C@H](Cc1cccc(C(=N)N)c1)[C@@H](CCc1ccccc1)NC(=O)c1ccc(-c2ccccc2)cc1`: the results for the Ki at Prothrombin [3], on Coagulation factor X and at Serine protease 1 were 810 nM, 21 nM and 67 nM, respectively.
As to `COC(=O)[C@H](Cc1cccc(C(=N)N)c1)[C@@H](CC(C)C)NC(=O)c1ccc(-c2cccc(CN)c2)cc1`, the figures for the Ki on Prothrombin [3], on Coagulation factor X and at Serine protease 1 were 990 nM, 0.4 nM and 38 nM, respectively.
The corresponding values for `COC(=O)[C@H](Cc1cccc(C(=N)N)c1)[C@@H](C)NC(=O)c1ccc(-c2ccc(C(N)=O)cc2)cc1` are greater than 4000 nM, 2 nM and 42 nM.
On the same counts, the results for `COC(=O)[C@H](Cc1cccc(C(=N)N)c1)[C@H](NC(=O)c1ccc(-c2cccc(CN)c2)cc1)C(C)C` are greater than 3950 nM, 8 nM and 300 nM.
In the case of `COC(=O)[C@H](Cc1cccc(C(=N)N)c1)[C@@H](/C=C/c1ccccc1)NC(=O)c1ccc(-c2ccccc2)cc1`, the values for the Ki at Prothrombin [3] and at Coagulation factor X were 954 nM and 9.4 nM, respectively.
In the case of `COC(=O)[C@H](Cc1cccc(C(=N)N)c1)[C@@H](C)NC(=O)c1ccc(-c2ccccc2)cc1`, the figures for the APTT in test [1] and in test [5] were 5.05 µM and 3.9 µM, respectively. Also, the Ki on Coagulation factor X worked out at 5.3 nM; at Serine protease 1, 69 nM. The Ki ratio (IIa/Xa) on Prothrombin [4] was roughly 3250.
With `COC(=O)[C@H](Cc1cccc(C(=N)N)c1)[C@@H](CC1CCCCC1)NC(=O)c1ccc(-c2cccc(CN)c2)cc1`, the Ki on Prothrombin [3] worked out at 650 nM; on Coagulation factor X it was 4 nM; at Serine protease 1, 36 nM.
For `COC(=O)[C@H](Cc1cccc(C(=N)N)c1)[C@@H](C)NC(=O)c1ccc(-c2ccc(C(=O)O)cc2)cc1`, the values for the Ki at Prothrombin [3] and on Coagulation factor X were greater than 4000 nM and 69 nM, respectively.
In the case of `COC(=O)[C@H](Cc1cccc(C(=N)N)c1)[C@@H](C)NC(=O)c1ccc(-c2cccc(CN(C)C)c2)cc1`, the Ki was determined as 2660 nM on Prothrombin [3], 1 nM at Coagulation factor X and 95 nM on Serine protease 1.
The corresponding values for `CCOC(=O)NCc1cccc(-c2ccc(C(=O)N[C@H](C)[C@@H](Cc3cccc(C(=N)N)c3)C(=O)OC)cc2)c1` are greater than 4000 nM, greater than 1200 nM and greater than 2900 nM.
Take `COC(=O)[C@H](Cc1cccc(C(=N)N)c1)[C@@H](C)NC(=O)c1ccc(-c2cccc(C(N)=O)c2)cc1`: the Ki was greater than 4000 nM on Prothrombin [3] and 90 nM on Serine protease 1.
In the case of `CC[C@@H](NC(=O)c1ccc(-c2cccc(CN)c2)cc1)[C@@H](Cc1cccc(C(=N)N)c1)C(=O)OC`, the Ki on Prothrombin [3] amounted to 2100 nM; at Coagulation factor X it was 0.7 nM; at Serine protease 1 it was 63 nM.
With `COC(=O)[C@H](Cc1cccc(C(=N)N)c1)[C@@H](Cc1ccccc1)NC(=O)c1ccc(-c2ccccc2)cc1`, the Ki on Prothrombin [3] worked out at 709 nM; at Coagulation factor X, 11 nM; at Serine protease 1 it was 75 nM.
